From ChEMBL document CHEMBL1156624, “A click chemistry approach to pleuromutilin conjugates with nucleosides or acyclic nucleoside derivatives and their binding to the bacterial ribosome” (J Med Chem, 2008) come the findings set out here.

Test [1] concerns Escherichia coli. Kind of test: Binding affinity to Escherichia coli MRE600 ribosome assessed as protection against N1-cyclohexyl-N3-(2-morpholino)ethylcarbodiimide p-toluenesulfonate-induced modifications at nucleotide U2506 in peptidyl transferase center of 23S rRNA at 50 uM by chemical footprinting relative to control.
Test [2] concerns Escherichia coli. Kind of test: Binding affinity to Escherichia coli MRE600 ribosome assessed as protection against N1-cyclohexyl-N3-(2-morpholino)ethylcarbodiimide p-toluenesulfonate-induced modifications at nucleotide U2585 in peptidyl transferase center of 23S rRNA at 50 uM by chemical footprinting relative to control.
Test [3] concerns Escherichia coli. In words: Binding affinity to Escherichia coli MRE600 ribosome assessed as protection against N1-cyclohexyl-N3-(2-morpholino)ethylcarbodiimide p-toluenesulfonate-induced modifications at nucleotide U2585 in peptidyl transferase center of 23S rRNA at 5 uM by chemical footprinting relative to control.
The subject of test [4] is Escherichia coli. In words: Binding affinity to Escherichia coli MRE600 ribosome assessed as protection against N1-cyclohexyl-N3-(2-morpholino)ethylcarbodiimide p-toluenesulfonate-induced modifications at nucleotide U2506 in peptidyl transferase center of 23S rRNA at 5 uM by chemical footprinting relative to control.

Turning to `C=C[C@]1(C)C[C@@H](OC(=O)Cn2cc(C[C@H](O)[C@@H]3O[C@H](n4cc(C)c(=O)[nH]c4=O)C[C@H]3O)nn2)[C@]2(C)[C@H](C)CC[C@]3(CCC(=O)[C@@H]32)[C@@H](C)[C@@H]1O`, the Activity in the test on Escherichia coli [1] came out at 0.09; in the test with Escherichia coli [2], 0.35; in the test with Escherichia coli [3], 0.69; in the test with Escherichia coli [4], 0.33.

Consider `C=C[C@]1(C)C[C@@H](OC(=O)Cn2cc(CCCc3ccccc3)nn2)[C@]2(C)[C@H](C)CC[C@]3(CCC(=O)[C@@H]32)[C@@H](C)[C@@H]1O`, for which the Activity in the test with Escherichia coli [1] amounted to 0.08; in the test with Escherichia coli [2], 0.41; with Escherichia coli [3], 0.48; in the test on Escherichia coli [4], 0.21.

Turning to `C=C[C@]1(C)C[C@@H](OC(=O)Cn2cc(CCc3ccccc3)nn2)[C@]2(C)[C@H](C)CC[C@]3(CCC(=O)[C@@H]32)[C@@H](C)[C@@H]1O`, the Activity amounted to 0.05 in the test with Escherichia coli [1], 0.35 in the test with Escherichia coli [2], 0.61 with Escherichia coli [3] and 0.29 in the test on Escherichia coli [4].

With `C=C[C@]1(C)C[C@@H](OC(=O)Cn2cc([C@@H](O)[C@@H]3O[C@H](n4cc(C)c(=O)[nH]c4=O)C[C@H]3O)nn2)[C@]2(C)[C@H](C)CC[C@]3(CCC(=O)[C@@H]32)[C@@H](C)[C@@H]1O` (mixture of isomers), the Activity in the test with Escherichia coli [1] is 0.1; with Escherichia coli [2] it was 0.25; in the test with Escherichia coli [3], 0.5; in the test on Escherichia coli [4], 0.38.

As to `C=C[C@]1(C)C[C@@H](OC(=O)Cn2cc(Cn3cc(C)c(=O)[nH]c3=O)nn2)[C@]2(C)[C@H](C)CC[C@]3(CCC(=O)[C@@H]32)[C@@H](C)[C@@H]1O`, the Activity in the test on Escherichia coli [1] came to 0.18; with Escherichia coli [2] it was 0.37; in the test with Escherichia coli [3] it was 0.75; in the test with Escherichia coli [4], 0.69.

For `C=C[C@]1(C)C[C@@H](OC(=O)Cn2cc(CCCn3ccc(N)nc3=O)nn2)[C@]2(C)[C@H](C)CC[C@]3(CCC(=O)[C@@H]32)[C@@H](C)[C@@H]1O`, the Activity in the test with Escherichia coli [1] was 0.05; in the test on Escherichia coli [2] it was 0.26; in the test with Escherichia coli [3], 0.56; in the test with Escherichia coli [4], 0.27.

Consider `C=C[C@]1(C)C[C@@H](OC(=O)Cn2cc(Cn3cnc4c(N)ncnc43)nn2)[C@]2(C)[C@H](C)CC[C@]3(CCC(=O)[C@@H]32)[C@@H](C)[C@@H]1O`, for which the Activity worked out at 0.19 with Escherichia coli [1], 0.37 in the test on Escherichia coli [2], 0.73 in the test with Escherichia coli [3] and 0.73 with Escherichia coli [4].

Regarding `C=C[C@]1(C)C[C@@H](OC(=O)Cn2cc(CO[C@@H]3C[C@@H](n4cc(C)c(=O)[nH]c4=O)O[C@H]3CO)nn2)[C@]2(C)[C@H](C)CC[C@]3(CCC(=O)[C@@H]32)[C@@H](C)[C@@H]1O`, the Activity stood at 0.12 with Escherichia coli [1], 0.41 with Escherichia coli [2], 0.73 with Escherichia coli [3] and 0.44 with Escherichia coli [4].

Regarding `C=C[C@]1(C)C[C@@H](OC(=O)Cn2cc(CO[C@@H]3[C@H](O)[C@@H](CO)O[C@H]3n3ccc(=O)[nH]c3=O)nn2)[C@]2(C)[C@H](C)CC[C@]3(CCC(=O)[C@@H]32)[C@@H](C)[C@@H]1O`, the Activity in the test with Escherichia coli [1] amounted to 0.14; in the test with Escherichia coli [2] it was 0.29; with Escherichia coli [3], 0.72; in the test with Escherichia coli [4], 0.54.

Regarding `C=C[C@]1(C)C[C@@H](OC(=O)CSCCN(CC)CC)[C@]2(C)[C@H](C)CC[C@]3(CCC(=O)[C@H]32)[C@@H](C)[C@@H]1O`, the Activity amounted to 0.05 in the test on Escherichia coli [1], 0.58 in the test on Escherichia coli [2], 0.59 in the test with Escherichia coli [3] and 0.1 in the test on Escherichia coli [4].

As to `C=C[C@]1(C)C[C@@H](OC(=O)Cn2cc([C@]3(O)[C@H](O)[C@@H](CO)O[C@H]3n3ccc(=O)[nH]c3=O)nn2)[C@]2(C)[C@H](C)CC[C@]3(CCC(=O)[C@@H]32)[C@@H](C)[C@@H]1O`, the Activity in the test on Escherichia coli [1] was found to be 0.18; in the test with Escherichia coli [2] it was 0.35; in the test on Escherichia coli [3], 0.74; with Escherichia coli [4], 0.61.

In the case of `C=C[C@]1(C)C[C@@H](OC(=O)Cn2cc(CCCn3cnc4c(N)ncnc43)nn2)[C@]2(C)[C@H](C)CC[C@]3(CCC(=O)[C@@H]32)[C@@H](C)[C@@H]1O`, the Activity in the test on Escherichia coli [1] turned out to be 0.06; in the test with Escherichia coli [2] it was 0.22; with Escherichia coli [3], 0.33; in the test on Escherichia coli [4], 0.17.

Regarding `C=C[C@]1(C)C[C@@H](OC(=O)CO)[C@]2(C)[C@H](C)CC[C@]3(CCC(=O)[C@@H]32)[C@@H](C)[C@@H]1O`, the Activity with Escherichia coli [1] came out at 0.1; in the test on Escherichia coli [2], 0.98; in the test with Escherichia coli [3] it was 0.99; in the test on Escherichia coli [4], 0.42.

With `C=C[C@]1(C)C[C@@H](OC(=O)Cn2cc(C[C@@H](O)[C@@H]3O[C@H](n4cc(C)c(=O)[nH]c4=O)C[C@H]3O)nn2)[C@]2(C)[C@H](C)CC[C@]3(CCC(=O)[C@@H]32)[C@@H](C)[C@@H]1O`, the Activity came to 0.09 with Escherichia coli [1], 0.29 in the test on Escherichia coli [2], 0.59 with Escherichia coli [3] and 0.32 in the test with Escherichia coli [4].

As for `C=C[C@]1(C)C[C@@H](OC(=O)Cn2cc([C@]3(O)[C@@H](CO)O[C@@H](n4ccc(=O)[nH]c4=O)[C@@H]3O)nn2)[C@]2(C)[C@H](C)CC[C@]3(CCC(=O)[C@@H]32)[C@@H](C)[C@@H]1O`, the Activity was determined as 0.03 in the test with Escherichia coli [1], 0.18 in the test on Escherichia coli [2], 0.45 in the test on Escherichia coli [3] and 0.24 in the test on Escherichia coli [4].

Regarding `C=C[C@]1(C)C[C@@H](OC(=O)Cn2cc(COC[C@H]3O[C@@H](n4cc(C)c(=O)[nH]c4=O)C[C@@H]3O)nn2)[C@]2(C)[C@H](C)CC[C@]3(CCC(=O)[C@@H]32)[C@@H](C)[C@@H]1O`, the Activity in the test with Escherichia coli [1] was found to be 0.19; with Escherichia coli [2] it was 0.36; in the test with Escherichia coli [3], 0.93; with Escherichia coli [4], 0.62.

For `C=C[C@]1(C)C[C@@H](OC(=O)Cn2cc(CCn3cc(C)c(=O)[nH]c3=O)nn2)[C@]2(C)[C@H](C)CC[C@]3(CCC(=O)[C@@H]32)[C@@H](C)[C@@H]1O`, the Activity in the test on Escherichia coli [1] came to 0.1; with Escherichia coli [2], 0.36; in the test on Escherichia coli [3] it was 0.57; in the test with Escherichia coli [4], 0.53.

For the compound `C=C[C@]1(C)C[C@@H](OC(=O)Cn2cc(Cc3ccccc3)nn2)[C@]2(C)[C@H](C)CC[C@]3(CCC(=O)[C@@H]32)[C@@H](C)[C@@H]1O`, the Activity is 0.06 in the test with Escherichia coli [1], 0.29 in the test on Escherichia coli [2], 0.54 in the test with Escherichia coli [3] and 0.31 with Escherichia coli [4].

In the case of `C=C[C@]1(C)C[C@@H](OC(=O)Cn2cc(Cn3ccc(N)nc3=O)nn2)[C@]2(C)[C@H](C)CC[C@]3(CCC(=O)[C@@H]32)[C@@H](C)[C@@H]1O`, the Activity in the test with Escherichia coli [1] came out at 0.16; in the test on Escherichia coli [2] it was 0.38; in the test on Escherichia coli [3], 0.69; in the test on Escherichia coli [4], 0.61.

On to `C=C[C@]1(C)C[C@@H](OC(=O)Cn2cc(CCCn3cc(C)c(=O)[nH]c3=O)nn2)[C@]2(C)[C@H](C)CC[C@]3(CCC(=O)[C@@H]32)[C@@H](C)[C@@H]1O`, for which the Activity with Escherichia coli [1] was 0.08; in the test with Escherichia coli [2] it was 0.24; in the test with Escherichia coli [3], 0.46; in the test on Escherichia coli [4] it was 0.41.

Consider `C=C[C@]1(C)C[C@@H](OC(=O)Cn2cc(CCn3cnc4c(N)ncnc43)nn2)[C@]2(C)[C@H](C)CC[C@]3(CCC(=O)[C@@H]32)[C@@H](C)[C@@H]1O`, for which the Activity in the test with Escherichia coli [1] turned out to be 0.1; in the test with Escherichia coli [2], 0.26; with Escherichia coli [3], 0.4; with Escherichia coli [4], 0.37.
